Measurements taken from patent US10775375B2, “Methods for identifying modulators of calcium-sensing receptors” (MARS, INCORPORATED, priority 2014, dated 2020).
Like-named read-outs stand apart in the source and are kept apart here.

Biological target: T1, feline calcium-sensing receptor (fCaSR) (Felis catus, UniProt C7FF08, X1044R)
T1 sequence (C7FF08 1-1081 X1044R): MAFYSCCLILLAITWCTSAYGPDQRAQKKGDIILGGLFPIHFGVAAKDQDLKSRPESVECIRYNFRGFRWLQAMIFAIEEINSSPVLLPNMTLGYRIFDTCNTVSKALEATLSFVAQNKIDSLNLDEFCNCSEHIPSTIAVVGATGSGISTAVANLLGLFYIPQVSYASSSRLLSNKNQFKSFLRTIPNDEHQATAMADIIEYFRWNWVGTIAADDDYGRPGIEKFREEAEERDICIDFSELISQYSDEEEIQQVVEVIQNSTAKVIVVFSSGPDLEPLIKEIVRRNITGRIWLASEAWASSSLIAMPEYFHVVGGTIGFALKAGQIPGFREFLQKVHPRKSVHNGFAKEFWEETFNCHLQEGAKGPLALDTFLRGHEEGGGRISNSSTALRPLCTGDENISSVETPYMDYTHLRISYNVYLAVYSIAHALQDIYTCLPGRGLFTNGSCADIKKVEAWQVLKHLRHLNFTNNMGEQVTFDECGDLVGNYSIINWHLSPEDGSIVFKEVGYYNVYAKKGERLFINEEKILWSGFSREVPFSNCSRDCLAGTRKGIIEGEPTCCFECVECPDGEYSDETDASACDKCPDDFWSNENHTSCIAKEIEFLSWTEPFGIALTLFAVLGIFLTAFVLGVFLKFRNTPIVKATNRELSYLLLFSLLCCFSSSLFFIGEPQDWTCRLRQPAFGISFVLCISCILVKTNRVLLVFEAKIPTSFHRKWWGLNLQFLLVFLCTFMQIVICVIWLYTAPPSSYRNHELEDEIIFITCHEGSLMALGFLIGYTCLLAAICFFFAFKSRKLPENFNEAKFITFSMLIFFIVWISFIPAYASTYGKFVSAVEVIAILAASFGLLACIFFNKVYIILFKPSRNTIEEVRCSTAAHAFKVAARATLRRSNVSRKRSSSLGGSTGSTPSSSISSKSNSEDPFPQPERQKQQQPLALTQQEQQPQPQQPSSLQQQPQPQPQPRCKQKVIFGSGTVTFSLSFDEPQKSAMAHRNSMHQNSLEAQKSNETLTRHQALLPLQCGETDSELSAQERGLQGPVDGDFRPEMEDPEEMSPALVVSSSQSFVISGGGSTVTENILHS
Test: In vitro cellular luminescence assay for activation of fCaSR (HEK T-Rex/natClytin clone K 5.1, FLIPR Tetra), agonist mode and PAM mode
Type: cell-based
Details: for CaSR agonists and PAMs (mode of action on CaSR): classification as agonist, PAM or not active
Source text: Summary. The full length coding sequence of the calcium-sensing receptor (CaSR, a GPCR (3, C or Glutamate family), naturally coupled to Gαq/11 and Gαi (ligand-directed signaling)) from Felis catus (fCaSR) having the sequence described by SEQ ID NO: 7 was synthesized and sub-cloned into suitable expression vectors. The cat CaSR expression constructs were stably transfected in two mammalian cell lines, the HEK-natClytin and the HEK T-Rex/natClytin, two cell lines that allow for detection of changes in intracellular calcium levels through luminescence. A pure selected clone (K 5.1) was used to analyze 12 CaSR ligands (including calcium as a reference agonist control) in a high-throughput screening (HTS) multi-plate test for agonist and positive allosteric modulator (PAM) effects.
A final pure selected clone (K 5.1) was analyzed in a HTS multi-plate test for agonist or positive allosteric modulator (PAM) effects of 12 CaSR ligands (including calcium as a reference agonist control). 10.000 cw of K 5.1 were seeded on poly-D-lys coated 384 well MTPs in medium containing 1 μg/mL of Doxycycline. Screening with the 12 ligands (including calcium control) was conducted 24 hours later. […] For each ligand that activated CaSR as an agonist or PAM, the EC50 value of the ligand was determined.
Detection of CaSR receptor activation. Transfected cells were analyzed for a response to a reference agonist (calcium) or various CaSR ligands by detecting Ca^2+ sensitive photoprotein luminescence. The experiments were performed in a 384 well format according to one of the following procedures: • 7.500 cw were plated on poly-D-lys coated 384 well microtiter plates (MTPs). 24 h later, medium was manually discarded and replaced with fresh medium containing 1 μg/mL of Doxycycline. Experiments were then carried out 48 h after seeding. • 10.000 cw were plated on poly-D-lys coated 384 well MTPs in medium containing 1 μg/mL of Doxycycline. Experiments were carried out 24 hrs later.
On the day of the experiment, medium was removed by plate overthrow and tapping on a paper towel. Cells were then incubated for 3-4 hrs at 37° C. with 10 μM coelenterazine dissolved in 2 mM Ca^2+ or Ca^2+-Free Tyrode's Buffer (20 μL). Cells were exposed to calcium control and/or ligand and the luminescence changes over a period of 1 minute (at 35.000 gain of sensitivity) were monitored using a FLIPR® Tetra screening system. For agonist evaluation, a single exposure protocol was applied (ligands 1º injection, 20 μL-2×), whereas for PAM evaluation a double injection protocol was applied as following: • 1° injection: ligands dose-response (20 μL-2×) • 2° injection: Reference agonist EC20 (20 μL-3×) • Data Analysis. FLIPR® Tetra measurements were analysed with Screenworks© software (Molecular Devices, Version 3.0.1.4) and data were exported as Maximum statistics of Absolute Response (RLU) calculated after compound injection. RLU is obtained applying “Subtract Bias on Sample n” (where n=Time point of compound injection). Mean and standard deviation values were calculated on the exported data with Excel software, and then values were used to create sigmoidal dose-response curves (variable slope) or histograms with GraphPad PRISM® software (Version 6). The obtained EC50/IC50 values were used to calculate EC50/[…] values according to the following formula: ECX=[(X/100−X)1/HillSlope]*EC50
Cell lines, Medium and Culture Conditions. The experiments were done using HEK-natClytin or HEK T-Rex/natClytin reporter cell lines that were generated by stable transfection of the photoprotein natClytin into HEK-293 or HEK-293 T-Rex (HEK T-Rex, Invitrogen) cell lines respectively.
For experimental conditions, cells were plated on poly-D-lys coated 384 well MTPs according to one of the following conditions: • 7.500 cw.

Row | Compound | CaSR agonists and PAMs (mode of action on CaSR) | EC50 | also measured
1 | O.O.[Ca+2].[Cl-].[Cl-] [Calcium (Ca^2+), Calcium chloride (dihydrate)] | (agonist) | – | –
2 | C[C@@H](NCCCc1cccc(C(F)(F)F)c1)c1cccc2ccccc12 [Cinacalcet] | Cinacalcet (PAM) | 0.001 mM | CaSR agonists and PAMs (mode of action on CaSR) (listed as cinacalcet): activated CaSR as PAMs
3 | NC(CCC(=O)NC(CS)C(=O)NCC(=O)O)C(=O)O [L-Glutathione, L-Glutathione (γ-Glu-Cys-Gly)] | L-Glutathione (agonist) | – | EC50 (agonist mode, single injection, HEK T-Rex/natClytin-fCaSR clone K 5.1, photoprotein luminescence, tested up to the MAX dose in c1/c2, read-out: Agonist EC50): 8.2 mM
4 | NCC1O[C@H](O[C@@H]2C(N)C[C@@H](N)C(O)C2O[C@@H]2O[C@H](CO)C(OC3O[C@@H](CN)C(O)C(O)[C@H]3N)C2O)C(N)C(O)[C@@H]1O (some centres unmarked) [Neomycin] | Neomycin (agonist) | 10 mM | –
5 | NCCCCN [Putrescine] | Putrescine (not active) | – | –
6 | NCCCCNCCCN [Spermidine] | Spermidine (agonist) | 1.3 mM | –
7 | NCCCNCCCCNCCCN [Spermine] | Spermine (agonist) | – | –
8 | Calindol | Calindol (PAM) | – | CaSR agonists and PAMs (mode of action on CaSR) (listed as calindol): activated CaSR as PAMs
9 | Magnesium chloride (hexahydrate) [Magnesium (Mg^2+)] | (agonist) | – | –
10 | Poly-L-Arginine | Poly-L-Arginine (agonist) | – | Agonist EC50 (agonist mode, single injection, HEK T-Rex/natClytin-fCaSR clone K 5.1, MAX dose 60 μg/mL): 4.6 µg/mL
